Each structure is given as a SMILES string.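 Compound exposure: 48 hours, 5 concentrations, 96-well plates. The concentration for full growth arrest is given as TGI.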 Where only a bound is given, the exact number is not on record here.

Test systems include A498 renal; EKVX NSCLC; HCT-116 colon; KM12 colon; MOLT-4 leukemia; NCI-H23 lung; OVCAR-5 ovarian; SW-620 colon; UO-31 renal; NCI-H522 lung.
Holding throughout (experiment): NCI-60 cell line screen, 48 h

Turning to `Cc1ccc(S(=O)(=O)N(CC(O)COc2ccccc2)c2c(F)c(F)cc(F)c2F)cc1` (stereo unspecified), the TGI with A498 renal is 39 µM; in the test on EKVX NSCLC it was 92.3 µM; in the test with HCT-116 colon it was above 100 µM; in the test on KM12 colon, 70.6 µM; with MOLT-4 leukemia, 2.25 µM; in the test on NCI-H23 lung, 43.2 µM. Also, the TGI came out at 76.3 µM in the test with OVCAR-5 ovarian, 85 µM in the test on SW-620 colon and 41.3 µM in the test on UO-31 renal.

For the compound `Cc1ccsc1/C=N/NC1=NCCN1`, the TGI in the test with A498 renal, in the test with EKVX NSCLC, with HCT-116 colon, in the test with KM12 colon, in the test on MOLT-4 leukemia and with NCI-H23 lung was above 100 µM in each case. The TGI in the test on OVCAR-5 ovarian, with SW-620 colon and with UO-31 renal was above 100 µM each time.

With `O=Cc1c2c(cc3c1CC1(C3)Cc3cc4c(c(C=O)c3C1)CCCC4)CCCC2`, the TGI was above 31.6 µM with EKVX NSCLC; above 31.6 µM with HCT-116 colon; above 31.6 µM in the test on KM12 colon; 23.2 µM with MOLT-4 leukemia; above 31.6 µM in the test on NCI-H23 lung; 27.3 µM in the test on NCI-H522 lung. In addition, the TGI was above 31.6 µM in the test on OVCAR-5 ovarian and above 100 µM with SW-620 colon.

For the compound `N/C(=N\N=C\c1cc2ccccc2s1)c1cnccn1`, the TGI in the test with A498 renal, in the test on EKVX NSCLC, with HCT-116 colon, with KM12 colon, with NCI-H23 lung and in the test with NCI-H522 lung was above 100 µM in each case. Also, the TGI with OVCAR-5 ovarian, in the test on SW-620 colon and in the test on UO-31 renal was above 100 µM throughout.

`COc1cc(C2CC(C)(N3CCOCC3)Oc3cc4c(cc32)OCO4)cc(OC)c1OC` (stereo unspecified): the TGI with EKVX NSCLC, in the test with HCT-116 colon, with KM12 colon, with MOLT-4 leukemia, in the test on NCI-H23 lung and in the test on NCI-H522 lung was above 100 µM throughout. Besides, the TGI in the test with OVCAR-5 ovarian, with SW-620 colon and in the test on UO-31 renal was above 100 µM throughout.

`COc1c(C)c(C/C=C(\C)CC/C=C(\C)CC/C=C(\C)CCC=C(C)C)c(OC)c(OC)c1OC`: the TGI with EKVX NSCLC, in the test with HCT-116 colon, in the test with KM12 colon, with MOLT-4 leukemia, in the test with NCI-H23 lung and in the test on NCI-H522 lung was above 100 µM throughout. Moreover, the TGI with OVCAR-5 ovarian, in the test on SW-620 colon and with UO-31 renal was above 100 µM each time.

As for `CC[C@H](C)[C@H](NC(=O)N(CCC#N)CCN(CCN(C(=O)N[C@@H](Cc1ccccc1)C(=O)OC)c1ccccc1)C(=O)N[C@H](C(=O)OC)C(C)C)C(=O)OC`, the TGI with A498 renal is 36.8 µM; in the test with EKVX NSCLC it was 69.2 µM; with HCT-116 colon, 36 µM; with KM12 colon, 39.7 µM; in the test on MOLT-4 leukemia, 24.7 µM; with NCI-H23 lung, 40.1 µM. Also, the TGI turned out to be 57.3 µM in the test with OVCAR-5 ovarian, 64.8 µM with SW-620 colon and 33.8 µM in the test with UO-31 renal.

In the case of `Oc1cc(O)c2c(c1)O[C@H](c1ccc(O)c(O)c1)[C@@H](O)C2`, the TGI with EKVX NSCLC, in the test on HCT-116 colon, in the test on KM12 colon, with MOLT-4 leukemia, in the test with NCI-H23 lung and in the test on NCI-H522 lung was above 100 µM throughout. The TGI in the test with OVCAR-5 ovarian, in the test with SW-620 colon and in the test with UO-31 renal was above 100 µM each time.

`C=CCn1c(-c2cc(C(C)(C)C)c(O)c(C(C)(C)C)c2)cs/c1=N\C(P(=O)(O)O)P(=O)(O)O`: the TGI in the test on A498 renal, with EKVX NSCLC, in the test with HCT-116 colon, with KM12 colon, with MOLT-4 leukemia and in the test with NCI-H23 lung was above 100 µM in each case. For the same compound, the TGI with OVCAR-5 ovarian, in the test with SW-620 colon and in the test with UO-31 renal was above 100 µM in each case.

On to `COc1ccccc1-n1cnc2c1NC(C)(C)N=C2C(N)=O`, for which the TGI in the test with A498 renal, with EKVX NSCLC, with HCT-116 colon, in the test with KM12 colon, in the test on NCI-H23 lung and in the test on NCI-H522 lung was above 100 µM in each case. Further, the TGI in the test with OVCAR-5 ovarian and with SW-620 colon was above 100 µM throughout.

Regarding `O=C(N/N=C(/COc1ccccc1)N=Cc1ccncc1)c1ccncc1`, the TGI in the test with A498 renal, with EKVX NSCLC, in the test on HCT-116 colon, with KM12 colon, in the test on MOLT-4 leukemia and with NCI-H23 lung was above 100 µM in each case. Also, the TGI with OVCAR-5 ovarian and with SW-620 colon was above 100 µM throughout.

For `O=C1CC(c2ccc(Cl)cc2)C2(C(=O)NC(=S)NC2=O)C(c2ccc(Cl)cc2)C1` (stereo unspecified), the TGI with A498 renal is 31.4 µM; with EKVX NSCLC it was 91.7 µM; in the test on HCT-116 colon, 45.5 µM; in the test with KM12 colon, 40.1 µM; with MOLT-4 leukemia it was 89.5 µM; in the test on NCI-H23 lung, 39 µM. Further, the results for the TGI with OVCAR-5 ovarian, in the test on SW-620 colon and with UO-31 renal were 47.7 µM, 44.7 µM and 48.9 µM, respectively.

As to `N#C/C(=C\c1ccc(O)c(O)c1)c1c(C#N)c(N)nn1-c1ccccc1`, the TGI in the test with A498 renal was 9.63 µM; in the test on EKVX NSCLC it was 69.7 µM; in the test on HCT-116 colon, 19.6 µM; in the test with KM12 colon it was above 100 µM; in the test with NCI-H23 lung, 25.3 µM; with NCI-H522 lung, 13.2 µM. In addition, the TGI in the test with OVCAR-5 ovarian was above 100 µM; in the test with SW-620 colon, above 100 µM; in the test with UO-31 renal it was 62 µM.

In the case of `CCOC(=O)/C(Br)=C1\OC(=O)c2ccccc2-c2ccccc21`, the TGI in the test on EKVX NSCLC is above 100 µM; in the test on HCT-116 colon, above 100 µM; with KM12 colon, above 100 µM; with MOLT-4 leukemia, 65.5 µM; in the test with NCI-H23 lung, above 100 µM; in the test on NCI-H522 lung, 61.1 µM. Besides, the TGI in the test with OVCAR-5 ovarian, in the test with SW-620 colon and in the test with UO-31 renal was above 100 µM each time.

With `COc1ccc(CN(CCN(C)C)c2ccccn2)cc1` (tested in a mixture with another compound), the TGI in the test on A498 renal, with KM12 colon, in the test on MOLT-4 leukemia, in the test on NCI-H23 lung, in the test on NCI-H522 lung and in the test with OVCAR-5 ovarian was above 100 µM throughout. Further, the TGI in the test with SW-620 colon and in the test with UO-31 renal was above 100 µM each time.
